In patent US12091426B2, “Bifunctional degraders of hematopoietic progenitor kinase and therapeutic uses thereof” (Nurix Therapeutics, Inc., priority 2021, dated 2024):

Target: T1, HPK1 (Homo sapiens, UniProt Q92918)
T1 construct: A HiBiT tag was introduced by CRISPR on the N terminus of HPK1 in Jurkat cells; host or cells: Jurkat cells (ATCC TIB-152), monoclonal line with CRISPR knock-in of HiBiT at the endogenous HPK1 locus
Test: HPK1 Cellular HiBit Degradation Assay
Format: cell-based
Conditions: HiBiT HPK1 Jurkat cells, 24 hrs; for DC50: concentration at which 50% of HPK1 was remaining, read-out: DC50 Category; for Dmax: Jurkat, maximum degradation vs DMSO vehicle control, read-out: Dmax Category
Method in brief: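 Degraders are dosed in an 11-point series (10 uM to 0.1 nM final) onto Jurkat cells carrying an N-terminal HiBiT tag on endogenous HPK1. After 24 hrs at 37° C, lysis-based HiBiT luminescence quantifies remaining HPK1 relative to vehicle, and curve fitting gives DC50 and Dmax.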

T1 sequence (Q92918 whole entry): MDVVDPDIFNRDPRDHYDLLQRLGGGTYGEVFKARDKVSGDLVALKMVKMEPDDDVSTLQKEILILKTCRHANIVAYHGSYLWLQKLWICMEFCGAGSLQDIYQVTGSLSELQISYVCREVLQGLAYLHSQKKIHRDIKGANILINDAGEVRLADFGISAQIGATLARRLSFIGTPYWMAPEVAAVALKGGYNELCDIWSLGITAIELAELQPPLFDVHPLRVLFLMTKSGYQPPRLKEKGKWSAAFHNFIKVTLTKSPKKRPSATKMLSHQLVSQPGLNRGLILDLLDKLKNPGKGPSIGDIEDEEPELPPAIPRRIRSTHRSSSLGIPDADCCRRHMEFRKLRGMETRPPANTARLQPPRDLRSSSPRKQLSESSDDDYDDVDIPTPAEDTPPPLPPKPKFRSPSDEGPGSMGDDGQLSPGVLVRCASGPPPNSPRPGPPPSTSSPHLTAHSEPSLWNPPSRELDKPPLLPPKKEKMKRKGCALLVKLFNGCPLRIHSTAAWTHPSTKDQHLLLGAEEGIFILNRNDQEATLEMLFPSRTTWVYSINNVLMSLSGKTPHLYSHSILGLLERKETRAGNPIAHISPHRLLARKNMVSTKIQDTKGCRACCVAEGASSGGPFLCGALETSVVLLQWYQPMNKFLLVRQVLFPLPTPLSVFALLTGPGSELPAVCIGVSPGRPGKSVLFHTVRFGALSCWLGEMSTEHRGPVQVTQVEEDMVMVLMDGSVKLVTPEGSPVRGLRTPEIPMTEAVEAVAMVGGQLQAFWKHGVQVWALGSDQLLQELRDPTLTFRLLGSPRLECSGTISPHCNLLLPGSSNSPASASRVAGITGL

Row | SMILES | DC50 [nM] | Dmax [%]
1 | CC(C)n1cnc2cc(-c3ccc4c(c3)N([C@H]3C[C@@H](N5CCCCC5)C3)C(=O)C43CCN(C(=O)C4(C#N)CCN(C(=O)C5CCN(c6ccc(C7CCC(=O)NC7=O)cc6)CC5)CC4)CC3)nc(NC3CC3)c21 (mixture of isomers) [Example 258, 4-({6-[4-(cyclopropylamino)-3-(propan-2-yl)-3H-imidazo[4,5-c]pyridin-6-yl]-2-oxo-1-[(1S,3S)-3-(piperidin-1-yl)cyclobutyl]-1,2-dihydrospiro[indole-3,4′-piperidin]-1′-yl}carbonyl)-1-(1-{4-[(3RS)-2,6-dioxopiperidin-3-yl]phenyl}piperidine-4-carbonyl)piperidine-4-carbonitrile] | < 100 | 70 to 85
2 | CC(C)n1cnc2cc(-c3ccc4c(c3)N([C@H]3C[C@@H](N5CCCCC5)C3)C(=O)C43CCN(C(=O)[C@@]45C[C@@H]4CN(C(=O)C4CCN(c6ccc(C7CCC(=O)NC7=O)cn6)CC4)C5)CC3)nc(NC3CC3)c21 (mixture of isomers) [Example 259, (3RS)-3-(6-{4-[(1S,5S)-1-({6-[4-(cyclopropylamino)-3-(propan-2-yl)-3H-imidazo[4,5-c]pyridin-6-yl]-2-oxo-1-[(1S,3S)-3-(piperidin-1-yl)cyclobutyl]-1,2-dihydrospiro[indole-3,4′-piperidin]-1′-yl}carbonyl)-3-azabicyclo[3.1.0]hexane-3-carbonyl]piperidin-1-yl}pyridin-3-yl)piperidine-2,6-dione] | < 100 | 70 to 85
3 | CC(C)n1cnc2cc(-c3ccc4c(c3)N([C@H]3C[C@@H](N5CCCCC5)C3)C(=O)C43CCN(C(=O)[C@H]4[C@@H]5CN(C(=O)C6CCN(c7ccc(C8CCC(=O)NC8=O)cn7)CC6)C[C@@H]54)CC3)nc(NC3CC3)c21 (mixture of isomers) [Example 260, (3RS)-3-(6-{4-[(1R,5S,6S)-6-({6-[4-(cyclopropylamino)-3-(propan-2-yl)-3H-imidazo[4,5-c]pyridin-6-yl]-2-oxo-1-[(1S,3S)-3-(piperidin-1-yl)cyclobutyl]-1,2-dihydrospiro[indole-3,4′-piperidin]-1′-yl}carbonyl)-3-azabicyclo[3.1.0]hexane-3-carbonyl]piperidin-1-yl}pyridin-3-yl)piperidine-2,6-dione] | < 100 | 70 to 85
4 | CC(C)n1cnc2cc(-c3ccc4c(c3)N([C@H]3C[C@@H](N5CCCCC5)C3)C(=O)C43CCN(C(=O)[C@H]4C[C@H]5C[C@@H]4CN5C(=O)C4CCN(c5ccc(C6CCC(=O)NC6=O)cn5)CC4)CC3)nc(NC3CC3)c21 (mixture of isomers) [Example 261, (3RS)-3-(6-{4-[(1R,4S,5S)-5-({6-[4-(cyclopropylamino)-3-(propan-2-yl)-3H-imidazo[4,5-c]pyridin-6-yl]-2-oxo-1-[(1S,3S)-3-(piperidin-1-yl)cyclobutyl]-1,2-dihydrospiro[indole-3,4′-piperidin]-1′-yl}carbonyl)-2-azabicyclo[2.2.1]heptane-2-carbonyl]piperidin-1-yl}pyridin-3-yl)piperidine-2,6-dione] | < 100 | 70 to 85
5 | CC(C)n1cnc2cc(-c3ccc4c(c3)N([C@H]3C[C@@H](N5CCCCC5)C3)C(=O)C43CCN(C(=O)[C@@H]4C[C@H]5CC[C@@H](C4)N5C(=O)C4CCN(c5ccc(C6CCC(=O)NC6=O)cc5)CC4)CC3)nc(NC3CC3)c21 (mixture of isomers) [Example 262, (3RS)-3-(4-{4-[(1R,3R,5S)-3-({6-[4-(cyclopropylamino)-3-(propan-2-yl)-3H-imidazo[4,5-c]pyridin-6-yl]-2-oxo-1-[(1S,3S)-3-(piperidin-1-yl)cyclobutyl]-1,2-dihydrospiro[indole-3,4′-piperidin]-1′-yl}carbonyl)-8-azabicyclo[3.2.1]Octane-8-carbonyl]piperidin-1-yl}phenyl)piperidine-2,6-dione] | < 100 | 70 to 85
6 | CC(C)n1cnc2cc(-c3ccc4c(c3)N([C@H]3C[C@@H](N5CCCCC5)C3)C(=O)C43CCN(C(=O)[C@]45C[C@H]4CN(C(=O)C4CCN(c6ccc(C7CCC(=O)NC7=O)cc6)CC4)C5)CC3)nc(NC3CC3)c21 (mixture of isomers) [Example 263, (3RS)-3-(4-{4-[(1R,5R)-1-({6-[4-(cyclopropylamino)-3-(propan-2-yl)-3H-imidazo[4,5-c]pyridin-6-yl]-2-oxo-1-[(1S,3S)-3-(piperidin-1-yl)cyclobutyl]-1,2-dihydrospiro[indole-3,4′-piperidin]-1′-yl}carbonyl)-3-azabicyclo[3.1.0]hexane-3-carbonyl]piperidin-1-yl}phenyl)piperidine-2,6-dione] | < 100 | 50 to 70
7 | CC(C)n1cnc2cc(-c3ccc4c(c3)N([C@H]3C[C@@H](N5CCCCC5)C3)C(=O)C43CCN(C(=O)[C@@H]4CCCN(C(=O)C5CCN(c6ccc(C7CCC(=O)NC7=O)cn6)CC5)C4)CC3)nc(NC3CC3)c21 (mixture of isomers) [Example 264, (3RS)-3-(6-{4-[(3R)-3-({6-[4-(cyclopropylamino)-3-(propan-2-yl)-3H-imidazo[4,5-c]pyridin-6-yl]-2-oxo-1-[(1S,3S)-3-(piperidin-1-yl)cyclobutyl]-1,2-dihydrospiro[indole-3,4′-piperidin]-1′-yl}carbonyl)piperidine-1-carbonyl]piperidin-1-yl}pyridin-3-yl)piperidine-2,6-dione] | < 100 | 70 to 85
8 | CC(C)n1cnc2cc(-c3ccc4c(c3)N([C@H]3C[C@@H](N5CCCCC5)C3)C(=O)C43CCN(C(=O)[C@@H]4C[C@@H]5C[C@H]4CN5C(=O)C4CCN(c5ccc(C6CCC(=O)NC6=O)cn5)CC4)CC3)nc(NC3CC3)c21 (mixture of isomers) [Example 265, (3RS)-3-(6-{4-[(S,4R,5R)-5-({6-[4-(cyclopropylamino)-3-(propan-2-yl)-3H-imidazo[4,5-c]pyridin-6-yl]-2-oxo-1-[(1S,3S)-3-(piperidin-1-yl)cyclobutyl]-1,2-dihydrospiro[indole-3,4′-piperidin]-1′-yl}carbonyl)-2-azabicyclo[2.2.1]heptane-2-carbonyl]piperidin-1-yl}pyridin-3-yl)piperidine-2,6-dione] | < 100 | 70 to 85
9 | CC(C)n1cnc2cc(-c3ccc4c(c3)N([C@H]3C[C@@H](N5CCCCC5)C3)C(=O)C43CCN(C(=O)[C@@H]4[C@H]5CCN(C(=O)C6CCN(c7ccc(C8CCC(=O)NC8=O)cn7)CC6)[C@H]54)CC3)nc(Nc3ccccc3F)c21 (mixture of isomers) [Example 266, (3RS)-3-(6-{4-[(1R,5R,6R)-6-[(6-{4-[(2-fluorophenyl)amino]-3-(propan-2-yl)-3H-imidazo[4,5-c]pyridin-6-yl}-2-oxo-1-[(1S,3S)-3-(piperidin-1-yl)cyclobutyl]-1,2-dihydrospiro[indole-3,4′-piperidin]-1′-yl)carbonyl]-2-azabicyclo[3.1.0]hexane-2-carbonyl]piperidin-1-yl}pyridin-3-yl)piperidine-2,6-dione] | < 100 | 70 to 85
10 | CC(C)n1cnc2cc(-c3ccc4c(c3)N([C@H]3C[C@@H](N5CCCCC5)C3)C(=O)C43CCN(C(=O)C4CN(C(=O)C5CCN(c6ccc(C7CCC(=O)NC7=O)cn6)CC5)CC5(CCC5)C4)CC3)nc(NC3CC3)c21 (mixture of isomers) [Example 267, (3RS)-3-(6-{4-[8-({6-[4-(cyclopropylamino)-3-(propan-2-yl)-3H-imidazo[4,5-c]pyridin-6-yl]-2-oxo-1-[(1S,3S)-3-(piperidin-1-yl)cyclobutyl]-1,2-dihydrospiro[indole-3,4′-piperidin]-1′-yl}carbonyl)-6-azaspiro[3.5]nonane-6-carbonyl]piperidin-1-yl}pyridin-3-yl)piperidine-2,6-dione] | < 100 | 50 to 70
11 | CC(C)n1cnc2cc(-c3ccc4c(c3)N([C@H]3C[C@@H](N5CCCCC5)C3)C(=O)C43CCN(C(=O)C4CN(C(=O)C5CCN(c6ccc(C7CCC(=O)NC7=O)cc6)CC5)CC(F)(F)C4)CC3)nc(NC3CC3)c21 (mixture of isomers) [Example 268, (3RS)-3-(4-{4-[5-({6-[4-(cyclopropylamino)-3-(propan-2-yl)-3H-imidazo[4,5-c]pyridin-6-yl]-2-oxo-1-[(1S,3S)-3-(piperidin-1-yl)cyclobutyl]-1,2-dihydrospiro[indole-3,4′-piperidin]-1′-yl}carbonyl)-3,3-Difluoropiperidine-1-carbonyl]piperidin-1-yl}phenyl)piperidine-2,6-dione] | 100 to 500 | 50 to 70
12 | CC(C)n1cnc2cc(-c3ccc4c(c3)N([C@H]3C[C@@H](N5CCCCC5)C3)C(=O)C43CCN(C(=O)C4CCN(C(=O)C5CCN(c6ccc(C7CCC(=O)NC7=O)cn6)CC5)C5(CC5)C4)CC3)nc(NC3CC3)c21 (mixture of isomers) [Example 269, (3RS)-3-(6-{4-[7-({6-[4-(cyclopropylamino)-3-(propan-2-yl)-3H-imidazo[4,5-c]pyridin-6-yl]-2-oxo-1-[(1S,3S)-3-(piperidin-1-yl)cyclobutyl]-1,2-dihydrospiro[indole-3,4′-piperidin]-1′-yl}carbonyl)-4-azaspiro[2.5]Octane-4-carbonyl]piperidin-1-yl}pyridin-3-yl)piperidine-2,6-dione] | < 100 | 70 to 85
13 | CC(C)n1cnc2cc(-c3ccc4c(c3)N([C@H]3C[C@@H](N5CCCCC5)C3)C(=O)C43CCN(C(=O)C4CCN(C(=O)C5CCN(c6ccc(C7CCC(=O)NC7=O)cn6)CC5)C5(CCC5)C4)CC3)nc(NC3CC3)c21 (mixture of isomers) [Example 270, (3RS)-3-(6-{4-[8-({6-[4-(cyclopropylamino)-3-(propan-2-yl)-3H-imidazo[4,5-c]pyridin-6-yl]-2-oxo-1-[(1S,3S)-3-(piperidin-1-yl)cyclobutyl]-1,2-dihydrospiro[indole-3,4′-piperidin]-1′-yl}carbonyl)-5-azaspiro[3.5]nonane-5-carbonyl]piperidin-1-yl}pyridin-3-yl)piperidine-2,6-dione] | < 100 | 70 to 85
